Test results as given in PubChem BioAssay AID2060908 (Molecular Pharmacology Branch, DTP, NCI, 2025).
pIC50: −log10 of the molar value. Values belong to the compound of their own block, whether it stands above or below them.

System: 186277-243-T-J2-PDC complex spheroids, viability
Test: Anticancer human tumor 186277-243-T-J2-PDC patient-derived colon adenocarcinoma cell line growth inhibition [RAS]
Conditions: for pIC50: curve of first compound; for viability, T/C: stronger effect = lower value; for IC50: curve of compound
Procedure, shortened: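 Multi-cell-type spheroids: tumor cells plus HUVEC endothelial cells and mesenchymal stem cells. RAS-pathway inhibitors were combined with targeted agents, each dosed in half-log steps down from clinical Cmax, or from 10 microM when Cmax was unknown.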

[1] = second compound 0.000949 µM, first compound 0.0316 µM
[2] = second compound 0.000949 µM, first compound 0.1 µM
[3] = second compound 0.000949 µM, first compound 0.316 µM
[4] = second compound 0.000949 µM, first compound 1 µM
[5] = second compound 0.003 µM, first compound 0.0316 µM
[6] = second compound 0.003 µM, first compound 0.1 µM
[7] = second compound 0.003 µM, first compound 0.316 µM
[8] = second compound 0.003 µM, first compound 1 µM
[9] = second compound 0.00949 µM, first compound 0.0316 µM
[10] = second compound 0.00949 µM, first compound 0.1 µM
[11] = second compound 0.00949 µM, first compound 0.316 µM
[12] = second compound 0.00949 µM, first compound 1 µM
[13] = second compound 0.03 µM, first compound 0.0316 µM
[14] = second compound 0.03 µM, first compound 0.1 µM
[15] = second compound 0.03 µM, first compound 0.316 µM
[16] = second compound 0.03 µM, first compound 1 µM
[17] = second compound 0.0949 µM, first compound 0.0316 µM
[18] = second compound 0.0949 µM, first compound 0.1 µM
[19] = second compound 0.0949 µM, first compound 0.316 µM
[20] = second compound 0.0949 µM, first compound 1 µM
[21] = second compound 0.3 µM, first compound 0.0316 µM
[22] = second compound 0.3 µM, first compound 0.1 µM
[23] = second compound 0.3 µM, first compound 0.316 µM
[24] = second compound 0.3 µM, first compound 1 µM
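Further: spheroids exposed to compounds for 7 days before viability read.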

Compound: CC(C)NCC(C(=O)N1CCN(c2ncnc3c2C(C)CC3O)CC1)c1ccc(Cl)cc1 (stereo not given) + C=CC(=O)N1CCN(c2nc(OCC3CCCN3C)nc3c(F)c(-c4nc(N)cc(C)c4C(F)(F)F)c(Cl)cc23)C(C)C1
pIC50 (second compound 0.00316 µM): 5.77
pIC50 (second compound 0.01 µM): 5.49
pIC50 (second compound 0.0316 µM): 5.57
pIC50 (second compound 0.1 µM): 5.69
pIC50 (second compound 0.316 µM): 5.60
pIC50 (second compound 1 µM): 5.72
viability, T/C (second compound 0.00316 µM, first compound 0.0316 µM): 94.2%
viability, T/C (second compound 0.00316 µM, first compound 0.1 µM): 87%
viability, T/C (second compound 0.00316 µM, first compound 0.316 µM): 113%
viability, T/C (second compound 0.00316 µM, first compound 1 µM): 59.2%
viability, T/C (second compound 0.00316 µM, first compound 3.16 µM): 43.6%
viability, T/C (second compound 0.00316 µM, first compound 10 µM): 34%
viability, T/C (second compound 0.01 µM, first compound 0.0316 µM): 78.7%
viability, T/C (second compound 0.01 µM, first compound 0.1 µM): 100%
viability, T/C (second compound 0.01 µM, first compound 0.316 µM): 101%
viability, T/C (second compound 0.01 µM, first compound 1 µM): 79.4%
viability, T/C (second compound 0.01 µM, first compound 3.16 µM): 51.4%
viability, T/C (second compound 0.01 µM, first compound 10 µM): 33.6%
viability, T/C (second compound 0.0316 µM, first compound 0.0316 µM): 72.3%
viability, T/C (second compound 0.0316 µM, first compound 0.1 µM): 110%
viability, T/C (second compound 0.0316 µM, first compound 0.316 µM): 77.1%
viability, T/C (second compound 0.0316 µM, first compound 1 µM): 87.1%
viability, T/C (second compound 0.0316 µM, first compound 3.16 µM): 44.1%
viability, T/C (second compound 0.0316 µM, first compound 10 µM): 35.2%
viability, T/C (second compound 0.1 µM, first compound 0.0316 µM): 93.2%
viability, T/C (second compound 0.1 µM, first compound 0.1 µM): 85.8%
viability, T/C (second compound 0.1 µM, first compound 0.316 µM): 103%
viability, T/C (second compound 0.1 µM, first compound 1 µM): 63.4%
viability, T/C (second compound 0.1 µM, first compound 3.16 µM): 47.6%
viability, T/C (second compound 0.1 µM, first compound 10 µM): 35.8%
viability, T/C (second compound 0.316 µM, first compound 0.0316 µM): 91.4%
viability, T/C (second compound 0.316 µM, first compound 0.1 µM): 96.3%
viability, T/C (second compound 0.316 µM, first compound 0.316 µM): 89.1%
viability, T/C (second compound 0.316 µM, first compound 1 µM): 62.8%
viability, T/C (second compound 0.316 µM, first compound 3.16 µM): 49.9%
viability, T/C (second compound 0.316 µM, first compound 10 µM): 29.5%
viability, T/C (second compound 1 µM, first compound 0.0316 µM): 107%
viability, T/C (second compound 1 µM, first compound 0.1 µM): 97.7%
viability, T/C (second compound 1 µM, first compound 0.316 µM): 87.5%
viability, T/C (second compound 1 µM, first compound 1 µM): 63.7%
viability, T/C (second compound 1 µM, first compound 3.16 µM): 38.9%
viability, T/C (second compound 1 µM, first compound 10 µM): 25.2%

Compound: CCC(CC)c1cc(NC2CCC(N)C2)n2nccc2n1 (stereo not given) + CCn1c(-c2cc(N3CCN(C)CC3)cnc2C(C)OC)c2c3cc(ccc31)-c1csc(n1)CC(NC(=O)C1CC1C)C(=O)N1CCCC(N1)C(=O)OCC(C)(C)C2
pIC50 (second compound 0.000949 µM): 5.74
pIC50 (second compound 0.003 µM): 5.76
pIC50 (second compound 0.00949 µM): 6.38
pIC50 (second compound 0.03 µM): > 7.50
pIC50 (second compound 0.0949 µM): > 7.50
pIC50 (second compound 0.3 µM): > 7.50
viability, T/C [1]: 123%
viability, T/C [2]: 115%
viability, T/C [3]: 109%
viability, T/C [4]: 101%
viability, T/C (second compound 0.000949 µM, first compound 3.16 µM): 4.75%
viability, T/C (second compound 0.000949 µM, first compound 10 µM): 0.22%
viability, T/C [5]: 99.4%
viability, T/C [6]: 100%
viability, T/C [7]: 107%
viability, T/C [8]: 91.9%
viability, T/C (second compound 0.003 µM, first compound 3.16 µM): 3.89%
viability, T/C (second compound 0.003 µM, first compound 10 µM): 0.17%
viability, T/C [9]: 55.5%
viability, T/C [10]: 54.6%
viability, T/C [11]: 57.5%
viability, T/C [12]: 33%
viability, T/C (second compound 0.00949 µM, first compound 3.16 µM): 3.19%
viability, T/C (second compound 0.00949 µM, first compound 10 µM): 0.17%
viability, T/C [13]: 15.8%
viability, T/C [14]: 17%
viability, T/C [15]: 18.1%
viability, T/C [16]: 9.82%
viability, T/C (second compound 0.03 µM, first compound 3.16 µM): 3.01%
viability, T/C (second compound 0.03 µM, first compound 10 µM): 0.19%
viability, T/C [17]: 8.36%
viability, T/C [18]: 8.25%
viability, T/C [19]: 9.17%
viability, T/C [20]: 5.58%
viability, T/C (second compound 0.0949 µM, first compound 3.16 µM): 2.44%
viability, T/C (second compound 0.0949 µM, first compound 10 µM): 0.29%
viability, T/C [21]: 7.09%
viability, T/C [22]: 6.68%
viability, T/C [23]: 6.45%
viability, T/C [24]: 4.66%
viability, T/C (second compound 0.3 µM, first compound 3.16 µM): 2.73%
viability, T/C (second compound 0.3 µM, first compound 10 µM): 0.31%

Compound: CCC(CC)c1cc(NC2CCC(N)C2)n2nccc2n1 (stereo not given)
viability, T/C (compound 0.0316 µM): 98.2% [middle of 4 runs]
viability, T/C (compound 0.1 µM): 94.7% [middle of 4 runs]
viability, T/C (compound 0.316 µM): 90.1% [middle of 4 runs]
viability, T/C (compound 1 µM): 91.8% [middle of 4 runs]
viability, T/C (compound 3.16 µM): 5.37% [middle of 4 runs]
viability, T/C (compound 10 µM): 0.37% [middle of 4 runs]
IC50: 1.77 µM [middle of 4 runs]

Now from value to compound, other results behind:

pIC50 (second compound 0.000949 µM): < 6.00
pIC50 (second compound 0.003 µM): 6.45
pIC50 (second compound 0.00949 µM): 8.44
pIC50 (second compound 0.03 µM): > 8.50
pIC50 (second compound 0.0949 µM): > 8.50
pIC50 (second compound 0.3 µM): > 8.50
Compound: CCN1CCN(Cc2ccc(Nc3ncc(F)c(-c4cc(F)c5nc(C)n(C(C)C)c5c4)n3)nc2)CC1 + CCn1c(-c2cc(N3CCN(C)CC3)cnc2C(C)OC)c2c3cc(ccc31)-c1csc(n1)CC(NC(=O)C1CC1C)C(=O)N1CCCC(N1)C(=O)OCC(C)(C)C2
viability, T/C (second compound 0.000949 µM, first compound 0.00316 µM): 102%
viability, T/C (second compound 0.000949 µM, first compound 0.01 µM): 121%
viability, T/C [1]: 140%
viability, T/C [2]: 149%
viability, T/C [3]: 121%
viability, T/C [4]: 76.6%
viability, T/C (second compound 0.003 µM, first compound 0.00316 µM): 105%
viability, T/C (second compound 0.003 µM, first compound 0.01 µM): 111%
viability, T/C [5]: 107%
viability, T/C [6]: 86.1%
viability, T/C [7]: 53%
viability, T/C [8]: 32%
viability, T/C (second compound 0.00949 µM, first compound 0.00316 µM): 50.8%
viability, T/C (second compound 0.00949 µM, first compound 0.01 µM): 43.8%
viability, T/C [9]: 32.7%
viability, T/C [10]: 22.1%
viability, T/C [11]: 16.8%
viability, T/C [12]: 12.3%
viability, T/C (second compound 0.03 µM, first compound 0.00316 µM): 14.5%
viability, T/C (second compound 0.03 µM, first compound 0.01 µM): 13.7%
viability, T/C [13]: 11.9%
viability, T/C [14]: 9.88%
viability, T/C [15]: 9.46%
viability, T/C [16]: 8.2%
viability, T/C (second compound 0.0949 µM, first compound 0.00316 µM): 7.73%
viability, T/C (second compound 0.0949 µM, first compound 0.01 µM): 7.37%
viability, T/C [17]: 6.72%
viability, T/C [18]: 6.74%
viability, T/C [19]: 7.64%
viability, T/C [20]: 7%
viability, T/C (second compound 0.3 µM, first compound 0.00316 µM): 6.2%
viability, T/C (second compound 0.3 µM, first compound 0.01 µM): 5.86%
viability, T/C [21]: 6.14%
viability, T/C [22]: 6.13%
viability, T/C [23]: 6.52%
viability, T/C [24]: 6.25%

IC50: 2.59 µM [middle of 4 runs]
Compound: CC(C)NCC(C(=O)N1CCN(c2ncnc3c2C(C)CC3O)CC1)c1ccc(Cl)cc1 (stereo not given)
viability, T/C (compound 0.0316 µM): 86% [middle of 4 runs]
viability, T/C (compound 0.1 µM): 89.2% [middle of 4 runs]
viability, T/C (compound 0.316 µM): 97.7% [middle of 4 runs]
viability, T/C (compound 1 µM): 68.8% [middle of 4 runs]
viability, T/C (compound 3.16 µM): 48% [middle of 4 runs]
viability, T/C (compound 10 µM): 32.2% [middle of 4 runs]
